Results from patent US11141413B2, “Method of treating renal cell carcinoma using N-(4-(6,7-dimethoxyquinolin-4-yloxy)phenyl)-N′-(4-fluorophenyl)cyclopropane-1,1-dicarboxamide, (2S)-hydroxybutanedioate” (Exelixis, Inc., priority 2016, dated 2021).
Several values for one entry are separate records, joined by “and”; a condition that tells them apart may be missing. Identical values can stand only once.

Tested on: advanced renal cell carcinoma (RCC)
Experiment: METEOR (Study 1) randomized phase 3 trial, cabozantinib vs everolimus: PFS, OS, ORR
Assay type: in vivo, human
Conditions: for ORR (95% CI), IRC / ORR (95% CI), Investigator assessed / Progressive disease, IRC / Progressive disease, Investigator assessed / Stable disease, IRC / Stable disease, Investigator assessed / Confirmed ORR (95% CI), IRC / Confirmed ORR (95% CI), Investigator assessed / Confirmed responses (95% CI), IRC / Confirmed responses (95% CI), Investigator assessed: RECIST 1.1; for PFS event: all randomized
[1] = Patients With High Tumor Burden
[2] = Primary TWT analysis (first 375), cut-off May 2015, min follow-up 11 mo, 247 PFS events
[3] = Pts with Bone and Visceral Metastases
[4] = Supportive analysis, all events (all 658), cut-off May 2015, min follow-up 6 mo, 394 PFS events
[5] = Traditional analysis (all 658), cut-off November 2014, min follow-up 2 days, 247 PFS events
[6] = all 658 randomized, per IRC, cutoff May 22, 2015
[7] = earlier cutoff at 247 events in the ITT Pop (traditional design)
[8] = high tumor burden (≥median SoD)
[9] = patients with bone and visceral metastases
[10] = patients with visceral (lung or liver) metastases
[11] = pazopanib only prior VEGFR TKI subgroup
[12] = prior therapy subgroup Anti-PD-1/PD-L1
[13] = prior therapy subgroup Pazopanib Only
[14] = prior therapy subgroup Sunitinib Only
[15] = sunitinib only prior VEGFR TKI subgroup

Compound: COc1cc2nccc(Oc3ccc(NC(=O)C4(C(=O)Nc5ccc(F)cc5)CC4)cc3)c2cc1OC [cabozantinib]
- Kaplan-Meier estimate of % of patients alive (6 Months landmark): 91% (87%, 93%)
- Kaplan-Meier estimate of % of patients alive (12 Months landmark): 73%
- Kaplan-Meier estimate of % of patients alive (12 Months landmark, listed as Cabozantinib): 73% (68%, 79%)
- Kaplan-Meier estimate of % of patients alive (18 Months landmark): 58%
- Kaplan-Meier estimate of % of patients alive (18 Months landmark, listed as Cabozantinib): 58% (53%, 64%)
- Kaplan-Meier estimate of % of patients alive (24 Months landmark): 48% (39%, 55%)
- OS HR, planned interim analysis, cabozantinib vs everolimus (49% information fraction, all 658 randomized, at time of primary PFS analysis): 0.67
- ORR (95% CI), IRC (Asia Pacific): 28 (15-45) %
- ORR (95% CI), Investigator assessed (Asia Pacific): 36 (21-53) %
- Progressive disease, IRC (Asia Pacific): 10%
- Progressive disease, Investigator assessed (Asia Pacific): 0%
- Stable disease, IRC (Asia Pacific): 62%
- Stable disease, Investigator assessed (Asia Pacific): 64%
- ORR (95% CI), IRC (Europe): 15 (10-21) %
- ORR (95% CI), Investigator assessed (Europe): 22 (16-29) %
- Progressive disease, IRC (Europe): 10%
- Progressive disease, Investigator assessed (Europe): 8%
- Stable disease, IRC (Europe): 69%
- Stable disease, Investigator assessed (Europe): 65%
- Median OS (ITT, all 658 randomized, cutoff Dec. 31, 2015): 21.4 months
- Objective response rate (confirmed, partial responses only) per IRC (ITT, all 658 randomized, cutoff May 22, 2015): 17%
- ORR (95% CI), IRC (North America): 16 (10-24) %
- ORR (95% CI), Investigator assessed (North America): 20 (13-29) %
- Progressive disease, IRC (North America): 17%
- Progressive disease, Investigator assessed (North America): 13%
- Stable disease, IRC (North America): 62%
- Stable disease, Investigator assessed (North America): 62%
- Confirmed ORR (95% CI), IRC [1]: 18 (12-24) %
- Confirmed ORR (95% CI), Investigator assessed [1]: 21 (15-28) %
- Progressive disease, IRC [1]: 8%
- Progressive disease, Investigator assessed [1]: 7%
- Stable disease, IRC [1]: 68%
- Stable disease, Investigator assessed [1]: 67%
- Confirmed ORR (95% CI), IRC (Patients With Low Tumor Burden): 17 (12-24) %
- Confirmed ORR (95% CI), Investigator assessed (Patients With Low Tumor Burden): 27 (20-34) %
- Progressive disease, IRC (Patients With Low Tumor Burden): 16%
- Progressive disease, Investigator assessed (Patients With Low Tumor Burden): 10%
- Stable disease, IRC (Patients With Low Tumor Burden): 62%
- Stable disease, Investigator assessed (Patients With Low Tumor Burden): 59%
- Median PFS [2]: 7.4 mo
- PFS HR, cabozantinib vs everolimus [2]: 0.58
- Confirmed responses (95% CI), IRC (Pts with Bone Metastases): 17 (9-27) %
- Confirmed responses (95% CI), Investigator assessed (Pts with Bone Metastases): 27 (18-39) %
- Progressive disease, IRC (Pts with Bone Metastases): 13%
- Progressive disease, Investigator assessed (Pts with Bone Metastases): 9%
- Stable disease, IRC (Pts with Bone Metastases): 70%
- Stable disease, Investigator assessed (Pts with Bone Metastases): 64%
- Confirmed responses (95% CI), IRC [3]: 20 (11-32) %
- Confirmed responses (95% CI), Investigator assessed [3]: 30 (19-43) %
- Progressive disease, IRC [3]: 15%
- Progressive disease, Investigator assessed [3]: 10%
- Stable disease, IRC [3]: 65%
- Stable disease, Investigator assessed [3]: 60%
- Confirmed responses (95% CI), IRC (Pts without Bone Metastases): 17 (13-23) %
- Confirmed responses (95% CI), Investigator assessed (Pts without Bone Metastases): 23 (18-28) %
- Progressive disease, IRC (Pts without Bone Metastases): 12%
- Progressive disease, Investigator assessed (Pts without Bone Metastases): 9%
- Stable disease, IRC (Pts without Bone Metastases): 64%
- Stable disease, Investigator assessed (Pts without Bone Metastases): 83%
- Median PFS [4]: 7.4 mo
- PFS HR, cabozantinib vs everolimus [4]: 0.51
- Median PFS [5]: 6 mo
- PFS HR, cabozantinib vs everolimus [5]: 0.48
- Objective response rate per investigator (all 658 randomized, cutoff May 22, 2015): 24%
- Median duration of PFS [6]: 7.4 months
- PFS HR, cabozantinib vs everolimus [6]: 0.51 and 0.52
- Median duration of PFS (all 658 randomized, per IRC, cutoff May 22, 2015, listed as Cabozantinib): 7.4 (6.6-9.1) months and 7.4 months
- PFS HR, cabozantinib vs everolimus (all 658 randomized, per investigator): 0.54
- Median duration of PFS (all 658 randomized, per investigator, cutoff May 22, 2015): 7.4 (7.3-7.8) months
- PFS HR, cabozantinib vs everolimus (all 658 randomized, per investigator, listed as Cabozantinib): 0.54 (0.45-0.66)
- PFS event (per IRC, cutoff May 22, 2015): 180 (55) ^ n (%)
- PFS event (per investigator, cutoff May 22, 2015): 196 (59) ^ n (%)
- Median PFS, alternative analysis [7]: 6 mo
- PFS HR, alternative analysis [7]: 0.49 and 0.48
- Median PFS (first 375 randomized, per independent radiology review committee (IRC)): 7.4 months
- Median OS (high MET tumor expression): 22.0 months
- OS HR, cabozantinib vs everolimus (high MET tumor expression): 0.55
- Median OS (high tumor burden): 18.1 mo
- OS HR, cabozantinib vs eve [8]: 0.60
- PFS HR, cabozantinib vs eve [8]: 0.41
- Patients with reduction in measurable tumor lesion size (in vivo): 75%
- Median OS (low MET tumor expression): 20.8 months
- OS HR, cabozantinib vs everolimus (low MET tumor expression): 0.72
- Median OS (low tumor burden): 22.0 mo
- OS HR, cabozantinib vs eve (low tumor burden (<median SoD)): 0.76
- PFS HR, cabozantinib vs eve (low tumor burden (<median SoD)): 0.63
- Median OS (patients enrolled in Canada): 20.8 mo
- Median PFS (patients enrolled in Canada): 7.4 mo
- ORR (patients enrolled in Canada): 17%
- OS HR, cabo vs eve (patients enrolled in Canada): 0.33
- PFS HR, cabo vs eve (patients enrolled in Canada): 0.40
- PFS HR, cabozantinib vs everolimus (patients with bone + visceral metastases): 0.26
- Median PFS [9]: 5.6 mo
- ORR [9]: 20%
- OS HR, cabozantinib vs everolimus [9]: 0.45
- Median PFS (patients with bone metastases): 7.4 mo
- ORR (patients with bone metastases): 17%
- OS HR, cabozantinib vs everolimus (patients with bone metastases): 0.54
- PFS HR, cabozantinib vs everolimus (patients with bone metastases at baseline): 0.33
- OS HR, cabozantinib vs eve [10]: 0.66
- PFS HR, cabozantinib vs eve [10]: 0.48
- OS HR, cabozantinib vs everolimus (pazopanib as only prior VEGFR TKI): 0.66
- Median OS [11]: 22.0 months
- Median PFS [11]: 7.4 months
- Best overall response: confirmed complete response (per IRC): 0 n
- Best overall response: confirmed partial response (per IRC): 57 n
- Best overall response: confirmed complete response (per investigator): 0 n
- Confirmed ORR (95% CI), tumor response by IRC [12]: 22 (6-48) %
- Confirmed ORR (95% CI), tumor response by investigator [12]: 22 (6-48) %
- Progressive disease, tumor response by IRC [12]: 11%
- Progressive disease, tumor response by investigator [12]: 11%
- Stable disease, tumor response by IRC [12]: 50%
- Stable disease, tumor response by investigator [12]: 56%
- Confirmed ORR (95% CI), tumor response by IRC [13]: 19 (12-29) %
- Confirmed ORR (95% CI), tumor response by investigator [13]: 31 (21-41) %
- Progressive disease, tumor response by IRC [13]: 14%
- Progressive disease, tumor response by investigator [13]: 3%
- Stable disease, tumor response by IRC [13]: 65%
- Stable disease, tumor response by investigator [13]: 64%
- Confirmed ORR (95% CI), tumor response by IRC [14]: 16 (11-24) %
- Confirmed ORR (95% CI), tumor response by investigator [14]: 23 (16-31) %
- Progressive disease, tumor response by IRC [14]: 12%
- Progressive disease, tumor response by investigator [14]: 11%
- Stable disease, tumor response by IRC [14]: 66%
- Stable disease, tumor response by investigator [14]: 60%
- ORR (region Asia Pacific (AP)): 28%
- OS HR, cabozantinib vs eve (region Asia Pacific (AP)): 0.49
- PFS HR, cabozantinib vs eve (region Asia Pacific (AP)): 0.43
- ORR (region Europe (EU)): 15%
- OS HR, cabozantinib vs eve (region Europe (EU)): 0.67
- PFS HR, cabozantinib vs eve (region Europe (EU)): 0.54
- ORR (region North America (NA)): 16%
- OS HR, cabozantinib vs eve (region North America (NA)): 0.79
- PFS HR, cabozantinib vs eve (region North America (NA)): 0.50
- Deaths (second interim analysis of OS, of randomized patients): 42%
- OS HR, cabozantinib vs everolimus (sunitinib as only prior VEGFR TKI): 0.66
- Median OS [15]: 21.4 months
- Median PFS [15]: 9.1 months
